From patent US11986487B2, “Mixture of HMOS for treating wheat sensitivity” (GLYCOM A/S, priority 2017, dated 2024) come the findings set out here.

This test has as its system human LS174T cell culture model of goblet cells. The test can be described thus: Goblet cell gene expression by quantitative RT-PCR. In kind it is cell-based. Conditions: 5 mg HMO/ml, compared to control cultures. As for the experimental part:
2′-FL and LNnT are tested with respect to their ability to induce MUC2, TFF3, EIMβ, CHST5, and GAL3ST2 expression in the human LS174T cell culture model of goblet cells. The human LS174T cell line is obtained from the American Type Culture Collection (ATCC). LS174T cells are maintained in minimum essential medium (MEM) supplemented according to instructions at 37° C. in air containing 5% of CO2. 2′-FL and LNnT are dissolved in cell culture grade water to the required concentration. The LS174T cells are treated with the HMO solution containing 0 or 5 mg HMO/ml. The LS174T cells are collected and suspended in Trizol reagent and total RNA is isolated using an RNA analysis kit (Qiagen) according to the manufacturer's instructions and the RNA isolates are quantified using Nanodrop analysis (Thermo Fisher Scientific). RNA isolates are reverse transcribed using a high capacity cDNA Reverse Transcription Kit (Applied Biosystems) to create cDNA, which is then used to assess gene expression via quantitative RT-PCR. For the quantitative RT-PCR, specific TaqMAN gene expression assays are obtained from Applied Biosystems, which include expression assays for MUC2, TFF3, CHST5 and GAL3ST2. Quantitative real-time PCR is performed using TaqMAN PCR Master Mix (Applied Biosystems). Reactions are run in duplicates in a 384-well plate using an Applied Biosystems 7900HT Fast Real-Time PCR System. The results are analysed using SDS 2.3 software and calculated by delta Ct method. All samples are normalized to Gus-β expression and fold induction is calculated over untreated controls. Gene expression is expressed as fold increase compared to HMO-free control cells. The experiment is repeated three times.

In the case of 2′-fucosyllactose [2′-FL], the “expression of CHST5” value is “minimal induction”, the “expression of GAL3ST2” value is “lack of induction”, the “expression of the MUC2 gene” value is “increases” and the “expression of the TFF3 gene” value is on record as “increases”.
`CC(=O)N[C@H]1[C@H](O[C@H]2[C@@H](O)[C@@H](CO)O[C@@H](O[C@H]3[C@H](O)[C@@H](O)C(O)O[C@@H]3CO)[C@@H]2O)O[C@H](CO)[C@@H](O[C@@H]2O[C@H](CO)[C@H](O)[C@H](O)[C@H]2O)[C@@H]1O` (mixture of isomers) [LNnT, lacto-N-neotetraose]: the “expression of CHST5” value is “minimal induction”, the “expression of GAL3ST2” value is recorded as “lack of induction”, the “expression of the MUC2 gene” value is “increases” and the “expression of the TFF3 gene” value is on record as “increases”.
